According to patent US20070243321A1, “Aqueous Bitumen Emulsion” (Eiffage Travaux Publics, priority 2004, published 2007):

Assay: Measurement of surface tension and critical micellar concentrations (rising drop tensiometer)
Type: physicochemical
Details: for CMC: critical micellar concentration; for γcmc: surface tension at the CMC, rising drop
Method: Measurement of Surface Tension and Critical Micellar Concentrations The tensiometric measurements were carried out with a drop tensiometer operating by the method of the rising drop ([…] tensiometer, I.T. CONCEPT).

Row | CMC [µM] | γcmc [mN/m] | Compound
1 | 8000 | 30.0 | CCCCCCCCCCCCOS(=O)(=O)[O-].[Na+] [SDS (C12), reference compound]
2 | 140 | 36.0 | betainylaminooctadecane mesylate [Amides C18:0]
3 | 800 | 37.2 | octadecyl betaine mesylate [Esters C18:0]
